Reference: patent US11028051B2, “Tetrahydroquinoline-based bromodomain inhibitors” (St. Jude Children's Research Hospital, priority 2016, dated 2021)
pEC50, pKd: −log10 of the molar value. Like-named read-outs stand apart in the source and are kept apart here.

What was measured:
BRD2-BD1 = BRD2-BD1 (Homo sapiens (Human), UniProt P25440); assay: competitive TR-FRET assay, BET-BD with acetylated peptide ligand; format: binding; settings: read-out: EC50 (μM) BRD2(1)
Protocol: (§1) Inhibitor potency was determined using a competitive TR-FRET assay as detailed herein, measuring interaction of the respective BET-BD with an acetylated peptide ligand (Table 2).

BRD2-BD2 = BRD2-BD2 (Homo sapiens (Human), UniProt P25440); assay: as above; format: binding; settings: read-out: EC50 (μM) BRD2(2)
BRD2-BD2, sequence (P25440 344-453): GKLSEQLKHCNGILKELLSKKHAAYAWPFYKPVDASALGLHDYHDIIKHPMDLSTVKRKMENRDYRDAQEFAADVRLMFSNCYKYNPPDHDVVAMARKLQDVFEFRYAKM
Protocol: as §1

BRDT = BRDT (Homo sapiens, UniProt Q58F21); assay: as above; format: binding
Protocol: as §1

BRD2(1) = BRD2(1) (Homo sapiens (Human), UniProt P25440); assay: BROMOscan KD determination; format: binding; settings: Table 10
BRD2(1), sequence (P25440 74-180): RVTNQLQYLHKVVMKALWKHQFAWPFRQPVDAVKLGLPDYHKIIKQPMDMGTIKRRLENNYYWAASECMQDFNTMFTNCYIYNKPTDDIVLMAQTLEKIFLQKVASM
Description: (§2) DiscoverX® can screen compounds against all ˜42 bromodomains (a service called BROMOscan) and perform follow-up KD determination. This service is considered the industrial standard for bromodomain inhibitor comparisons. […] Dots are symbolic of inhibition of the compound at this concentration; the larger the size of the dot, the greater the activity of the compound. […] Though these compounds are selective for the BET family, the selectivity within the BET family is poor. The results of a competitive binding experiment between compounds 19 (left), 41 (center), and 56 (right) (at a single concentration, 1 μM) and a control for each of the bromodomains are shown in FIG. 5.

BRDT(1) = BRDT(1) (Homo sapiens (Human), UniProt Q58F21); assay: BROMOscan KD determination; format: binding; settings: Table 10
Description: as §2

BRD2(2) = BRD2(2) (Homo sapiens (Human), UniProt P25440); assay: BROMOscan KD determination; format: binding; settings: BROMOscan, Table 10
BRD2(2), sequence (P25440 344-453): as the sequence (P25440 344-453) above
Description: as §2

BRDT(2) = BRDT(2) (Homo sapiens (Human), UniProt Q58F21); assay: BROMOscan KD determination; format: binding; settings: BROMOscan, Table 10
Description: as §2

BRD3(2) = BRD3(2) (Homo sapiens (Human), UniProt Q15059); assay: BROMOscan KD determination; format: binding; settings: BROMOscan, Table 10
BRD3(2), sequence (Q15059 306-415): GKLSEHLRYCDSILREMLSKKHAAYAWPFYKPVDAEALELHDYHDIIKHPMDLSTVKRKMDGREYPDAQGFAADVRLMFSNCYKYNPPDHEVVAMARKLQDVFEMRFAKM
Description: (§3) DiscoverX® can screen compounds against all ˜42 bromodomains (a service called BROMOscan) and perform follow-up KD determination. This service is considered the industrial standard for bromodomain inhibitor comparisons.

BRD3(1) = BRD3(1) (Homo sapiens (Human), UniProt Q15059); assay: BROMOscan KD determination; format: binding; settings: Table 10
BRD3(1), sequence (Q15059 34-140): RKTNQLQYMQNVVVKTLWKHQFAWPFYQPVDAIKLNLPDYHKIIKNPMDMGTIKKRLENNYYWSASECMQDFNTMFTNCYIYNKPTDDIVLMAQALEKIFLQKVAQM
Description: as §3

[1] = tested on: c-Myc expression in HDMB03 cells; assay: c-Myc expression inhibition, high content microscopy (HCM); format: cell-based, human; settings: read-out: EC50 (μM) Myc-inhibition
NALM-16 = assay: anti-proliferative activity; format: cell-based; settings: Table 5
Protocol: (§4) After 7 days of treatment, an equal volume of CellTiter-Glo reagent (G7572, Promega) was added and the luminescence signal was measured using an automated Envision plate reader (Perkin-Elmer). Luminescence data were normalized by log10 transformation prior to calculating the percent inhibition using the following equation:
(§5) 100*(negative control mean −compound value)/(negative control mean −positive control mean).

Loucy = assay: anti-proliferative activity; format: cell-based; settings: Table 5
Protocol: as §4, §5

SEM cells = assay: anti-proliferative activity; format: cell-based; settings: Table 5
Protocol: as §4, §5

all ~42 bromodomains = assay: BROMOscan competitive binding experiment at a single concentration; settings: 1 μM, FIG. 4
Description: as §2

HDMB03 cells = assay: cell viability, CellTiter-Glo; format: cell-based, human; settings: read-out: EC50 (μM) HDMB03
In short: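 Medulloblastoma cells grown as neurospheres in supplemented neurobasal medium and treated for 7 days; viability read by CellTiter-Glo luminescence. Log10-transformed signal normalized to negative and positive controls; median percent inhibition of triplicates fitted with a four-parameter log-logistic model.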

BRD2-BD1, sequence (P25440 74-180): as the sequence (P25440 74-180) above

**Q.** With `CC(=O)N1c2ccc(-c3ccc(C(=O)O)cc3)cc2[C@H](Nc2ccc(Cl)cc2)C[C@@H]1C` [GSK-726, IBET-726, reference compound] as the compound, how does the EC50 (BRD2-BD1; Table 4) read?
**A.** 1 µM

**Q.** What about the EC50 (BRD2-BD1; Table 6) of the same compound?
**A.** 1.3 µM

**Q.** And the EC50 (BRD2-BD1; Table 8)?
**A.** 1.3 µM

**Q.** What about the EC50 (BRD2-BD2; Table 4) of the same compound?
**A.** 0.057 µM

**Q.** What about the EC50 (BRD2-BD2; Table 6) of the same compound?
**A.** 0.19 µM

**Q.** And the EC50 (BRD2-BD2; Table 8)?
**A.** 0.19 µM

**Q.** What about the pEC50 (BRDT; Table 4, read-out: BRDT EC50) of the same compound?
**A.** 5.28

**Q.** What about the pEC50 (BRDT; Table 6, head names no target, BRDT by comparison with Table 4, read-out: EC50) of the same compound?
**A.** 5.26

**Q.** What about the pEC50 (BRDT; Table 8, head names no target, BRDT by comparison with Table 4, read-out: EC50) of the same compound?
**A.** 5.26

**Q.** And the pKd (BRD2(1))?
**A.** 8.33

**Q.** What about the pKd (BRDT(1)) of the same compound?
**A.** 8.35

**Q.** And the pKd (BRD2(2))?
**A.** 9.70

**Q.** And the pKd (BRDT(2))?
**A.** 9.05

**Q.** What about the pKd (BRD3(2)) of the same compound?
**A.** 9.70

**Q.** What about the pKd (BRD3(1)) of the same compound?
**A.** 8.51

**Q.** And the EC50 ([1]; Table 5)?
**A.** 0.17 µM

**Q.** What about the EC50 ([1]; Table 7) of the same compound?
**A.** 1.5 µM

**Q.** And the EC50 ([1]; Table 9, c-Myc expression inhibition in HDMB03 cells)?
**A.** 1.5 µM

**Q.** And the EC50 (NALM-16)?
**A.** 0.23 µM

**Q.** And the EC50 (Loucy)?
**A.** 0.33 µM

**Q.** And the EC50 (SEM cells)?
**A.** 0.02 µM

**Q.** And the “activity across bromodomain families” value (all ~42 bromodomains)?
**A.** activity only versus the BET family

**Q.** And the EC50 (HDMB03 cells; Table 5)?
**A.** 5.77 µM

**Q.** And the EC50 (HDMB03 cells; Table 7)?
**A.** 0.95 µM

**Q.** What about the EC50 (HDMB03 cells; Table 9, cancer cell proliferation inhibition) of the same compound?
**A.** 0.95 µM
